According to patent publication US20080146592A1, “Method of Treating Preeclampsia Employing Metolazone” (priority 2003, published 2008):

System: “preeclamptic” rat model
Experiment: "preeclamptic" rat model (pregnant rats, saline drinking water plus weekly DOCA)
Format: in vivo, Sprague-Dawley rats
Protocol: Metolazone is a diuretic with unique properties. At low doses, it reduces blood pressure in our “preeclamptic” rat model. Female Sprague-Dawley rats were mated and the “preeclamptic” syndrome was induced by replacing their drinking water with saline and injecting them with DOCA at weekly intervals. When hypertension had occurred (3-5 days of gestation), the animals were randomly divided into two groups: 1) Group I (PE+M), n=7, was given metolazone in a daily dose of 0.04 mg/kg body weight daily for 12-14 day by gavage and 2) Group II (PE) n=5, was simply given the vehicle (saline).

[1] = rat model of preeclampsia, metolazone treatment

## Cc1ccccc1N1C(=O)c2cc(S(N)(=O)=O)c(Cl)cc2NC1C (stereo not shown) [Metolazone, metolazone]
PE+M rats, 0.04 mg/kg daily by gavage, 16.2+/−6 mM/24 h prior to M administration, p>0.05
  Urinary sodium excretion after M: 15.3 mM/24 h
PE+M rats, seen in four of the five vehicle PE animals
  Growth retardation (animals affected): none
PE+M versus PE rats
  Weight gain versus vehicle group: similar
Metolazone 0.04 mg/kg body weight daily for 12-14 day by gavage, before treatment 119+/−3 mm Hg, vehicle PE rats 121+/−7 mm Hg, p<0.01
  Blood pressure in the PE+M animals after treatment (mean): 100+/−16 mm/Hg
[1]
  Effect on intrauterine growth restriction: beneficial effect
  Influence on pup number and development: positive influence
Rat model of preeclampsia, non-diuretic dose
  Volume contraction: without causing volume contraction
